Results reported in publication PMC4899609, “Spectroscopic and Docking Studies on the Binding of Liquiritigenin with Hyaluronidase for Antiallergic Mechanism” (Scientifica, 2016).

Experiments:
[1] = test system: T1, Hyaluronidase (HAase); test: intrinsic fluorescence quenching, excitation […] nm; format: binding; conditions: 293 K; sodium phosphate buffer pH 7.4; HAase 2.0 × 10^−6 mol L^−1; n 1.0623; double-log
T1 construct: gene SPAM1; ovine testis or bacterial possible; human HYAL1 2PE4 was only the docking model

[2] = biological target: T1, Hyaluronidase (HAase); test: modified Morgan-Elson colorimetric assay (DMAB, […] nm); format: biochemical; conditions: hyaluronic acid sodium 0.5 mg mL^−1; HAase 500 U mL^−1; CaCl2 12.5 mM; 37 °C

## O=C1C[C@@H](c2ccc(O)cc2)Oc2cc(O)ccc21 [liquiritigenin]
[1]
  K a: 39537 L/mol
[2]
  IC50: 680 ± 43 µM
